Columns and labels:
[1] = test system: APAP-induced hepatic ROS and RNS production; test: In vivo monitoring of remediation of APAP-induced hepatotoxicity with enzyme inhibitors and antioxidant scavengers; set-up: species or system mice; settings: for FL index / ONOO/HOCl production in liver / luminescence emission / H2O2 production in liver: APAP 300 mg/kg i.p. with GSH 200 mg/kg i.v., 1-ABT 2×100 mg/kg i.p. or t-1,2-DCE 0.2 mg/kg i.p.
Protocol: To this end, the effects of inhibitors of APAP bioactivation on in vivo hepatic ROS and RNS production were evaluated using the CF-SPNs of the disclosure (FIGS. 4A, 4C, and 4D).
Without wishing to be bound by any one theory, a mechanism for APAP bioactivation involves CYP450-mediated oxidation to an iminoquinone, N-acetylparaquinonimine (NAPQI), which can bind directly to cellular proteins to induce mitochondrial dysfunction and the production of ONOO, or undergo reduction by molecular oxygen to form superoxide (O2.^−) and H2O2 (FIG. 4B).
For inhibitor studies, animals were treated with 200 mg/kg of GSH intravenously 5 min prior to drug treatment (James et al., (2003) Toxicol. Sci. 75: 458-467), with 0.2 mg/kg t-1,2-DCE intraperitoneally 2 h prior to drug treatment (Jackson et al., (2000) Toxicol. Sci. 55: 266-273), or with 100 mg/kg 1-ABT intraperitoneally 12 and 24 h prior to drug treatment (as described in Jackson et al., (2000) Toxicol. Sci. 55: 266-273).

[2] = test system: drug-induced liver production of H2O2; settings: APAP 300 mg/kg i.p.; 0.2 mg luminol i.v., dose equal to CPPO in 0.8 mg CF-SPN
liver tissue = test: Histology (H&E), nitrotyrosine immunohistochemistry and TUNEL staining of liver after drug challenge; type: in vivo, mice
Protocol: The correlation of an imaging biomarker with histological changes in the tissue of interest is desirable to validate the use of a biomarker for indicating an intended pathological outcome. To this end, histological and immunohistochemical analysis of liver tissue was performed on mice 45 min (FIGS. 3D and 11) and 180 min (FIGS. 3E and 11) following treatment with the indicated doses of APAP.
Animals were imaged longitudinally for the indicated lengths of time, warmed until observable sternal recumbence, and then returned to their cage. Animals were euthanized 180 min following drug treatment, and their livers were resected and placed into buffered formalin for histological examination. A separate set of animals was fasted, treated with drug, and their livers were resected after euthanasia to provide tissues for histological examination 45 min following drug treatment.
All tissues were embedded in paraffin prior to 10 micron sectioning. Histology samples were stained by hematoxylin and eosin under standard protocols. Immunohistochemistry samples were processed using an anti-nitrotyrosine primary antibody (Life Technologies Inc., NY, USA) at 1:500 dilution, with color development according to the protocol described in the DAKO LSB+ kit. Endogenous peroxidases were quenched prior to processing. TUNEL staining was performed according to the manufacturer instructions using the ApopTag Plus Peroxidase In Situ Apoptosis Kit (EMD Millipore, Mass., USA). All images were acquired using an Olympus IX2-UCB (Olympus America Inc., PA, USA) inverted fluorescence microscope equipped with a Nuance (CRi Inc., MA, USA) hyperspectral camera capable of brightfield full color imaging.

liver H2O2 = test: Extension of H2O2 detection window by readministration of CF-SPN after APAP; type: in vivo, mice; settings: APAP 300 mg/kg i.p.
Protocol: FIG. 10A illustrates extension luminescent images of the time course of H2O2 detection after drug challenge by readministration of CF-SPN. Mice were administered 300 mg/kg APAP (top row, 1-4) or saline (bottom row, 5-8) i.p., followed by the administration of 0.8 mg CF-SPN i.v. After 25 min, CF-NP was readministered i.v.
FIG. 10B is a graph illustrating the quantitation of liver luminescence. Black arrow in indicates CF-SPN readministration. Numbers on images correspond to time points indicated on plot.
This elevation in luminescence from APAP overdose was sustained over the time course of imaging (FIG. 3B). However, due to the baseline consumption of CPPO that had been observed in mouse serum (FIG. 7B), the ability to extend the H2O2 detection window with the re-administration of CF-SPN was assessed (FIG. 10). The re-administration of CF-SPN following treatment with a hepatotoxic dose of APAP (300 mg/kg) produced an elevated luminescence signal having approximately 50% of the intensity of the initial CF-SPN injection.

[3] = test system: drug-induced hepatic oxidative and nitrosative stress; test: Real-time in vivo CF-SPN imaging of drug-induced hepatotoxicity (chemiluminescence and fluorescence index); set-up: species or system female nude mice
Protocol: Female nude mice were administered a given dose of APAP intraperitoneally, anesthetized, and fitted with tail vein catheters.
All animal experiments involved 8-10 week old female nude mice (Charles River Laboratories International, Inc., Mass., USA). Animals were fasted for 8 h prior to imaging for all drug-induced hepatotoxicity imaging. Animals were treated intraperitoneally with sterilized saline solutions of APAP (10 mg/mL) or INH (10 mg/mL) and were then anesthetized with intraperitoneal injection of 100 mg/kg ketamine and 10 mg/mL xylazine. A tail vein catheter was inserted, and the mice were placed in an IVIS® Spectrum imaging system. Fifteen minutes after the administration of drug, 0.8 mg CF-SPN was injected intravenously through the tail vein catheter, and imaging began immediately. Luminescence images were acquired for 3 min with an open filter, and fluorescence images were acquired using autoexposure with excitation of 580±10 nm, and emission at both 680±10 nm and 820±10 nm.
Luminescence data was processed using Living Image software (v. 4.3.1, Perkin Elmer, Mass., USA) for all experiments, in addition to fluorescence data for biodistribution experiments. For fluorescent ratiometric mapping of liver intensity, image scale bars were normalized, with the scale set to a red color scheme.
Fluorescence images without photograph overlay were exported as TIFF, read into Matlab® (v. 8.0.0.783, The MathWorks Inc., CO, USA) where the percent difference between the fluorescence intensity at 680 nm and 820 nm was mapped for the liver region of interest. To plot the fluorescence index (FL index) over time, fluorescence intensities of the liver region of interest were extracted for images acquired with emission at 680 nm and at 820 nm using Living Image software. The intensity values, measured in units of radiance efficiency, were exported to Excel® where the percent difference in emission intensity at 680 nm and 820 nm was calculated. Finally, the FL index was calculated as the ratio of the percent difference of drug treated animals to that of control animals. All statistical analyses were performed using Prism software (v. 5.0c, GraphPad Software Inc., CA, USA).

[4] = anti-tuberculosis chemotherapy; cited from earlier work
[5] = 200, 100, 50 mg/kg i.p., 0.8 mg CF-SPN i.v.

Q: For `N[C@@H](CCC(=O)N[C@@H](CS)C(=O)NCC(=O)O)C(=O)O` [GSH, glutathione], which “FL index / ONOO/HOCl production in liver” value [1] is on record?
A: The value was “reduced level of H2O2 and ONOO/HOCl production relative to mice receiving APAP alone, but still elevated”.

Q: What about the “luminescence emission / H2O2 production in liver” value [1] of the same compound?
A: The value was “reduced level of H2O2 and ONOO/HOCl production relative to mice receiving APAP alone, but still elevated”.

Q: Which “luminescent signal from liver after APAP overdose” value [2] does the source give for `Nc1cccc2c(=O)[nH][nH]c(=O)c12` [Luminol, luminol] here?
A: The value was “did not produce any detectable luminescent signal”.

Q: For `CC(=O)Nc1ccc(O)cc1` [APAP, acetaminophen], which “foci positive for protein nitrotyrosyl residues or TUNEL (DNA fragmentation)” value (liver tissue; 45 min after drug administration) is on record?
A: Its value is “no foci positive”.

Q: And the “histological changes in liver tissue (hematoxylin/eosin)” value (liver tissue; 45 min after drug challenge, any dose level (300, 150, 75 mg/kg))?
A: Its value is “No histological changes”.

Q: And the “immunohistochemical and histological findings in liver” value (liver tissue; 180 min after administration, 300 mg/kg)?
A: The value was “significant protein nitrotyrosyl and TUNEL-positive foci, as well as hepatocellular degeneration characteristic of APAP-induced oncotic necrosis”.

Q: What about the “immunohistochemical or histological changes to liver tissue” value (liver tissue; lower doses (150 mg/kg, 75 mg/kg)) of the same compound?
A: The value was “did not induce immunohistochemical or histological changes to liver tissue”.

Q: And the “time after administration within which a significant decrease in H2O2 production occurs” value (liver H2O2)?
A: Its value is ≤ 60 min.

Q: And the “liver chemiluminescence (H2O2)” value ([3]; 150 mg/kg and 75 mg/kg i.p., 0.8 mg CF-SPN i.v.)?
A: The value was “only baseline luminescence similar to untreated mice”.

Q: What about the “liver chemiluminescence (H2O2)” value ([3]; 300 mg/kg i.p., by 18 min after start of imaging, 0.8 mg CF-SPN i.v.) of the same compound?
A: The value was “significant enhancement in signal”.

Q: And the “elevation in percent difference between fluorescence emission at 680 nm and 820 nm (ONOO/HOCl)” value ([3]; 53 min after CF-SPN administration, doses 300, 150, 75 mg/kg i.p.)?
A: Its value is “only observed for mice receiving 300 mg/kg APAP”.

Q: And the “timing of increase in ONOO/HOCl generation (FL index)” value ([3]; APAP overdose 300 mg/kg i.p.)?
A: Its value is “later than the generation of H2O2”.

Q: Which “patients with associated hepatotoxicity” value [4] does the source give for `NNC(=O)c1ccncc1` [INH, isoniazid] here?
A: The value was ≤ 25%.

Q: And the “severity of liver tissue degradation (histology, H&E)” value (liver tissue; 180 min after drug administration, 200, 100, 50 mg/kg i.p.)?
A: Its value is “dose-dependent increase in the severity of liver tissue degradation”.

Q: And the “dose dependence of H2O2 production (chemiluminescence)” value [3, 5]?
A: The value was “threshold dose-type production”.

Q: And the “dose dependence of ONOO/HOCl production (fluorescence index)” value [3, 5]?
A: The value was “dose-dependent enhancement”.

Q: What about the “kinetics of oxidative stress compared with APAP” value ([3]; i.p., chemiluminescent channel) of the same compound?
A: The value was “more short-lived oxidative burst”.

Q: And the “kinetics of nitrosative stress compared with APAP” value ([3]; i.p., fluorescent channel)?
A: Its value is “more rapidly developed and sustained induction of nitrosative stress”.

Q: What does the source list for `Cl/C=C/Cl` [t-1,2-DCE, trans-1,2-dichloroethylene]?
A: FL index / ONOO/HOCl production in liver [1]: suppressed ONOO/HOCl production to the same extent; luminescence emission / H2O2 production in liver [1]: completely prevent H2O2 production

Q: For `Nn1nnc2ccccc21` [1-ABT, 1-aminobenzotriazole], which “duration of H2O2 production after CF-SPN administration” value ([1]; APAP 300 mg/kg i.p. with 1-ABT 2×100 mg/kg i.p.) is on record?
A: The value was “less than 20 min”.

Q: What about the “FL index / ONOO/HOCl production in liver” value [1] of the same compound?
A: The value was “suppressed ONOO/HOCl production to the same extent”.

Q: And the “luminescence emission / H2O2 production in liver” value [1]?
A: The value was “intense but short-lived”.
